The record followed here is publication PMC10641814 (Journal of Medicinal Chemistry, 2023).

One assay concerns the target T1, h5-HT6R (Homo sapiens, UniProt P50406).
T1 construct: expressed in transfected cells
Briefly: 5-HT6R radioligand binding ([3H]-LSD) in HEK293 cells stably expressing h5-HT6R. As to conditions: 2 nM [3H]-LSD, mean of three independent experiments, read-out: Ki ± SEM [nM] 5-HT6R.

In a further assay the target is T2, hMAO-B (Homo sapiens, UniProt P27338).
T2 construct: purchased Sigma-Aldrich M7441
T2 sequence (P27338 1-520): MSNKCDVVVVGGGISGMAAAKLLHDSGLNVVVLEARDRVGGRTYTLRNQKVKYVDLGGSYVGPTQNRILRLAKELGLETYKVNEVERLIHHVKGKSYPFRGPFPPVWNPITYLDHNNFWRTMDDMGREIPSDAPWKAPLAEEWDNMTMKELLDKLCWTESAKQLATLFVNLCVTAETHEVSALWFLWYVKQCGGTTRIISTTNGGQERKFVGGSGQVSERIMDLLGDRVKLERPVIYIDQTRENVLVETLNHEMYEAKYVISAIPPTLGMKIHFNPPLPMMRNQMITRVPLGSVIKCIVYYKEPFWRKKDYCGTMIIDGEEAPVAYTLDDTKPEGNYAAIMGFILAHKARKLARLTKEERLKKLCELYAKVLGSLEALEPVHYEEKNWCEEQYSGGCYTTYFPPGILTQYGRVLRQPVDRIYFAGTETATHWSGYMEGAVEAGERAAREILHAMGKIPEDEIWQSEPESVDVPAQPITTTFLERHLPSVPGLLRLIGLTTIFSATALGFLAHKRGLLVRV
Briefly: MAO-B inhibition, fluorometric method, p-tyramine substrate. Type of assay: biochemical. As to conditions: two experiments in duplicate.

Assay [1] deals with oAβ25–35-induced memory deficits in rats. Briefly: oAβ25–35-induced memory deficits in T-maze test in rats. The assay is classed as in vivo, rat. As for the experimental part: For the AD model, adult male Sprague–Dawley rats (Janvier Lab., France) weighing 260–280 g (8 weeks) at the beginning of the experiments were housed 1 week before experiments in a standard animal facility of the University of Montpellier (CECEMA, registration number E34-172-23) (12/12 h light/dark cycle with lights on at 07:00; 21 ± 1 °C, food and water ad libitum). All experiments, including sacrifices, were performed in conscious rats between 09:00 and 12:00, during the diurnal period of the circadian rhythm. Male has been preferred over female because the latter may present a confounding factor of the estrous cycle, a parameter that needs to be systematically controlled. Animal procedures were conducted in strict adherence to the European Union Directive of 2010 (2010/63/EU). The National French Animal Welfare Committee and the local committee at the University of Montpellier approved all protocols (authorization: CEEA-LR-12160). All efforts were made to minimize the number of animals used, potential pain, suffering, and distress.
As previously detailed,[37],[64] to induce the acute model of AD (oAβ25–35 model), rats were divided into three groups. One group had no surgery (Naive group), a second set of animals received an intracerebroventricular (icv) injection of incubated scrambled peptide (negative control groups—10 μg/rat—Sc), and a third set received an icv injection of oAβ25–35 (AD groups—10 μg/rat—Aβ). The animals were anesthetized with an intraperitoneal (ip) injection of a mixture of ketamine and xylazine (80 and 10 mg/kg b.w., respectively). Scrambled peptide and oAβ25–35 were injected directly into the lateral ventricles at a rate of 2 μL/min using a David-Kopf stereotaxic apparatus (coordinates of injection: AP −1 mm, L ±1.5 mm, DV −3.5 mm).
1—A curative approach: This treatment was started 1 week after the induction of amyloid toxicity (icv injection of oAβ25–35) and consisted of 2 ip injections (1.5 mg/kg per injection) per day for 1 week. On day 14, animals were subjected to a behavioral memory test (T-maze) and sacrificed on day 15 by decapitation.
(§1) 2—A preventive approach: This treatment was started at the same time as the induction of amyloid toxicity and consisted of implanting ip, and during the same anesthetic procedure necessary for the icv injection of oAβ25–35, an osmotic pump (Alzet-EML2, Charles-River, France) which continuously delivered the molecules for 1 week at the dose of 3 mg/kg/day. On day 7, animals were submitted to a behavioral memory test (T-maze) and sacrificed on day 8 by decapitation.
As previously reported, the T-maze test was used to rapidly assess cognitive ability in rats, especially the short-term memory deficits, when performed in two successive sessions.[37],[38],[64],[65] The T-maze consisted of two short arms (A and B), extending from a longer alley (C) and enclosed with high walls. The test involved two trials, separated by 1 h. During the training session, one short arm (B) was closed. Rats were placed at the end of the long alley, allowed to visit the maze for 10 min, and then returned to their home cage. […] The number of visits and time spent in each arm were measured. The results were expressed as the ratio of the time spent in the initially closed novel arm, over the time spent in the previous arm, and as a ratio of the number of entries into the novel arm over the familiar one. […]

Assay [2] deals with hippocampus of rats injected with oAβ25–35. Kind of assay: Western blot of hippocampal AD biomarkers in oAβ25–35-injected rats. As to conditions: oAβ25–35 icv. The assay is classed as in vivo, rat. As for the experimental part: As previously detailed,[37],[64] to induce the acute model of AD (oAβ25–35 model), rats were divided into three groups. […] The animals were anesthetized with an intraperitoneal (ip) injection of a mixture of ketamine and xylazine (80 and 10 mg/kg b.w., respectively). Scrambled peptide and oAβ25–35 were injected directly into the lateral ventricles at a rate of 2 μL/min using a David-Kopf stereotaxic apparatus (coordinates of injection: AP −1 mm, L ±1.5 mm, DV −3.5 mm).
On day 14, animals were subjected to a behavioral memory test (T-maze) and sacrificed on day 15 by decapitation.
as §1
At the time of sacrifice, all hippocampi were dissected out, weighed, and rapidly frozen in liquid nitrogen for Western blot (WB) analysis.
Western blot analyses were performed on the whole hippocampus as previously described.[37] All antibodies used are detailed in Table S3. Briefly, after sacrifice, hippocampi were microdissected, weighed, immediately frozen in liquid nitrogen, and stored at −20 °C. Tissues were sonicated (VibraCell; Sonics & Materials, USA) in a lysis buffer[37] and centrifuged (4 °C). Supernatants were collected, and the protein concentration was measured using a bicinchoninic Acid (BCA) assay (ThermoFisher Scientific, France). […] The membranes were incubated overnight (4 °C) with the primary antibody, washed, and then incubated for 2 h with the appropriate horseradish peroxidase-conjugated secondary antibody. […] The intensity of the immunoreactive signals was quantified using Image-J software (NIH, Bethesda, […], USA). β-Tubulin (β-Tub) was used as a loading control for all experiments.
Background: A western blot detects proteins with antibodies after separation by electrophoresis.

[3] abbreviates: 1.5 mg/kg ip twice a day for 7 days.

In general, Ki refers to a dissociation constant, usually derived from enzyme kinetics or from competition with a known ligand.

Molecules are shown by their SMILES.

T1 sequence (P50406 whole entry): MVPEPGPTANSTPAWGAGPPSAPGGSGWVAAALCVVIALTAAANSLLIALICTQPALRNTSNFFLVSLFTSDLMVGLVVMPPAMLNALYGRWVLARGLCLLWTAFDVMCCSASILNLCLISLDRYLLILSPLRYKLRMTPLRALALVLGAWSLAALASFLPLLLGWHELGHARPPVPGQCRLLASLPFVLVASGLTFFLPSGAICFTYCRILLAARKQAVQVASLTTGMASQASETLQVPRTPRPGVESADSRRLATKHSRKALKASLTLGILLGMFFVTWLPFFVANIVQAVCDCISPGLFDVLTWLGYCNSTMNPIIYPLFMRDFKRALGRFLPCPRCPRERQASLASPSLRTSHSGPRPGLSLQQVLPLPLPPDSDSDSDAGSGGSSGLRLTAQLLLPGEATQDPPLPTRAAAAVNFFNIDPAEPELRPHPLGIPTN

Turning to `Cl.c1ccc(Cn2ccc3c(N[C@H]4CCNC4)nc4ccccc4c32)cc1` [Compound 3], the Ki at h5-HT6R was 21 ± 3 nM. The “pIC50 ± SEM (MAO-B)” value at hMAO-B came to 6.57 ± 0.03.

Turning to `Cl.Fc1cccc(Cn2ccc3c(N[C@H]4CCNC4)nc4ccccc4c32)c1` [Compound 4], the Ki on h5-HT6R was 21 ± 2 nM. Further, the “pIC50 ± SEM (MAO-B)” value on hMAO-B is 6.16 ± 0.05.

In the case of `Cl.Clc1cccc(Cn2ccc3c(N[C@H]4CCNC4)nc4ccccc4c32)c1` [Compound 5, (S)-1-(3-Chlorobenzyl)-N-(pyrrolidin-3-yl)-1H-pyrrolo[3,2-c]quinolin-4-amine Hydrochloride], the Ki on h5-HT6R was 7 ± 1 nM. Moreover, at hMAO-B, the “pIC50 ± SEM (MAO-B)” value turned out to be 6.92 ± 0.04.

`Cl.Clc1cccc(Cn2ccc3c(N[C@@H]4CCNC4)nc4ccccc4c32)c1` [Compound 6]: on h5-HT6R, the Ki came to 30 ± 4 nM. Besides, the “pIC50 ± SEM (MAO-B)” value on hMAO-B is 6.83 ± 0.01.

Take `Brc1cccc(Cn2ccc3c(N[C@H]4CCNC4)nc4ccccc4c32)c1.Cl` [Compound 7]: at h5-HT6R, the Ki is 10 ± 1 nM. The “pIC50 ± SEM (MAO-B)” value on hMAO-B turned out to be 6.89 ± 0.12.

Turning to `COc1cccc(Cn2ccc3c(N[C@H]4CCNC4)nc4ccccc4c32)c1.Cl` [Compound 8], on h5-HT6R, the Ki came out at 25 ± 3 nM. Also, the “pIC50 ± SEM (MAO-B)” value against hMAO-B was 6.86 ± 0.07.

Turning to `Cl.Clc1cccc(Cn2ccc3c(NC[C@H]4CCCN4)nc4ccccc4c32)c1` [Compound 9], the Ki on h5-HT6R was 214 ± 26 nM. The “pIC50 ± SEM (MAO-B)” value against hMAO-B turned out to be 5.70 ± 0.04.

With `Cl.Clc1cccc(Cn2ccc3c(NC[C@@H]4CCCN4)nc4ccccc4c32)c1` [Compound 10, (S)-1-(3-Chlorobenzyl)-N-(pyrrolidin-2-ylmethyl)-1H-pyrrolo[3,2-c]quinolin-4-amine Hydrochloride], at h5-HT6R, the Ki is 226 ± 30 nM. Moreover, the “pIC50 ± SEM (MAO-B)” value on hMAO-B amounted to 6.52 ± 0.04.

As to `Cl.Clc1cccc(Cn2ccc3c(NC[C@H]4CCNC4)nc4ccccc4c32)c1` [Compound 11], on h5-HT6R, the Ki was determined as 140 ± 18 nM. The “pIC50 ± SEM (MAO-B)” value against hMAO-B was 8.02 ± 0.12.

With `Cl.Clc1cccc(Cn2ccc3c(NC[C@@H]4CCNC4)nc4ccccc4c32)c1` [Compound 12], on h5-HT6R, the Ki is 122 ± 10 nM. The “pIC50 ± SEM (MAO-B)” value on hMAO-B amounted to 6.52 ± 0.04.

Turning to `CN(C)C1CCN(c2nc3ccccc3c3c2ccn3Cc2cccc(Cl)c2)C1.Cl` (stereo not shown) [Compound 13], the Ki at h5-HT6R worked out at 1340 ± 156 nM. In addition, the “pIC50 ± SEM (MAO-B)” value against hMAO-B worked out at 7.43 ± 0.04.

Turning to `Cl.NC[C@@H]1CCN(c2nc3ccccc3c3c2ccn3Cc2cccc(Cl)c2)C1` [Compound 14], the Ki on h5-HT6R was determined as 1520 ± 220 nM. Further, the “pIC50 ± SEM (MAO-B)” value against hMAO-B was found to be 8.00 ± 0.00.

Consider `CNC1CN(c2nc3ccccc3c3c2ccn3Cc2cccc(Cl)c2)C1.Cl` [Compound 15], for which the Ki at h5-HT6R turned out to be 723 ± 87 nM. The “pIC50 ± SEM (MAO-B)” value on hMAO-B was 8.22 ± 0.14.

In the case of `Cl.Clc1cccc(Cn2ccc3c(N4CCCNCC4)nc4ccccc4c32)c1` [Compound 17], the Ki at h5-HT6R was 138 ± 15 nM. The “pIC50 ± SEM (MAO-B)” value against hMAO-B turned out to be 7.69 ± 0.12.

Turning to `Cl.Clc1cccc(Cn2ccc3c(N4C[C@H]5C[C@@H]4CN5)nc4ccccc4c32)c1` [Compound 18], at h5-HT6R, the Ki was determined as 372 ± 48 nM. Further, the “pIC50 ± SEM (MAO-B)” value against hMAO-B was 6.73 ± 0.02.

For `CN(C)C1CCN(c2nc3ccccc3c3c2ccn3Cc2cccc(Cl)c2)CC1.Cl` [Compound 19], the Ki at h5-HT6R is 1270 ± 173 nM. Further, on hMAO-B, the “pIC50 ± SEM (MAO-B)” value came out at 5.60 ± 0.02.

As for `Cl.Clc1cccc(Cn2ccc3c(N4CC5(CCNC5)C4)nc4ccccc4c32)c1` [Compound 20, 1-(3-Chlorobenzyl)-4-(2,6-diazaspiro[3.4]octan-2-yl)-1H-pyrrolo[3,2-c]quinoline Hydrochloride], the Ki at h5-HT6R was found to be 677 ± 82 nM. The “pIC50 ± SEM (MAO-B)” value at hMAO-B came out at 7.01 ± 0.11.

Turning to `Cl.Clc1cccc(Cn2ccc3c(N4CC5(CNC5)C4)nc4ccccc4c32)c1` [Compound 21], the Ki at h5-HT6R came to 920 ± 127 nM. Besides, the “pIC50 ± SEM (MAO-B)” value on hMAO-B came out at 6.97 ± 0.05.

For the molecule `Cl.Clc1cccc(Cn2ccc3c(C4=CCNCC4)nc4ccccc4c32)c1` [Compound 22], on h5-HT6R, the Ki stood at 34 ± 4 nM. The “pIC50 ± SEM (MAO-B)” value against hMAO-B was determined as 6.67 ± 0.04.

For the molecule `Cl.Clc1cccc(Cn2ccc3c(C4CCNCC4)nc4ccccc4c32)c1` [Compound 23, 1-(3-Chlorobenzyl)-4-(piperidin-4-yl)-1H-pyrrolo[3,2-c]quinoline Hydrochloride], at h5-HT6R, the Ki turned out to be 541 ± 80 nM. Also, at hMAO-B, the “pIC50 ± SEM (MAO-B)” value is on record as 6.13 ± 0.06.

In the case of `Cl.Clc1cccc(Cn2ccc3c(CN4CCNCC4)nc4ccccc4c32)c1` [Compound 24], the Ki at h5-HT6R was 119 ± 14 nM. Further, the “pIC50 ± SEM (MAO-B)” value against hMAO-B amounted to 5.21 ± 0.02.

In the case of `Cl.Clc1cccc(CNc2cc(N3CCNCC3)nc3ccccc23)c1` [Compound 25], the Ki at h5-HT6R was 152 ± 18 nM. At hMAO-B, the “pIC50 ± SEM (MAO-B)” value stood at 5.36 ± 0.03.

Turning to `Cl.Clc1cccc(CNc2ccnc(N3CCNCC3)c2)c1` [Compound 26], the Ki at h5-HT6R stood at 5450 ± 793 nM. At hMAO-B, the “pIC50 ± SEM (MAO-B)” value was found to be 5.18 ± 0.04.

As for `O=S(=O)(c1ccccc1)c1cnc2c(N3CCNCC3)cccc2c1` [Intepirdine, reference compound], the “effect on oAβ25–35-induced memory deficits in T-maze, curative treatment” value in assay [1] (1.5 mg/kg ip twice a day for 7 days, started 1 week after icv oAβ25–35) is recorded as “only partially reversed the memory deficits”. The “effect on oAβ25–35-induced memory deficits in T-maze, preventive treatment” value in assay [1] (3 mg/kg/day by ip osmotic pump for 1 week, concomitant with icv oAβ25–35) is “did not exhibit the same preventive effect”. Moreover, in assay [2] (setting [3]), the “hippocampal Caspase-3 and Pro-caspase-3 expression, curative strategy” value was “decreased expression of Caspase-3 and Pro-caspase-3”; the “hippocampal PSD-95 and SYN levels, curative treatment” value is on record as “reversed only the SYN level”. In addition, the “hippocampal Caspase-3 and Pro-caspase-3 expression, preventive treatment” value in assay [2] (3 mg/kg/day osmotic pump 1 week) was “prevented increased expression of Caspase-3 and Pro-caspase-3”. In addition, in assay [2] (curative and preventive approach), the “hippocampal GFAP increase” value is reported as “Neither PZ-1922 nor intepirdine impacted the GFAP increase”.
